Assay results published in ChEMBL document CHEMBL1641539 (Bioorg Med Chem Lett, 2011).

How the values were obtained:
[1] = target: Ribosomal protein S6 kinase alpha-1 (Rattus norvegicus) (UniProt Q63531); experiment: Inhibition of rat Rsk1 at 10 uM after 60 mins by TR-FRET assay; values are per cent of control
[2] = target: Fibroblast growth factor receptor 4 (Homo sapiens) (UniProt P22455); experiment: Inhibition of human FGFR4 at 10 uM after 60 mins by TR-FRET assay; values are per cent of control
Fibroblast growth factor receptor 4 (Homo sapiens), sequence (P22455 22-802 limits assumed): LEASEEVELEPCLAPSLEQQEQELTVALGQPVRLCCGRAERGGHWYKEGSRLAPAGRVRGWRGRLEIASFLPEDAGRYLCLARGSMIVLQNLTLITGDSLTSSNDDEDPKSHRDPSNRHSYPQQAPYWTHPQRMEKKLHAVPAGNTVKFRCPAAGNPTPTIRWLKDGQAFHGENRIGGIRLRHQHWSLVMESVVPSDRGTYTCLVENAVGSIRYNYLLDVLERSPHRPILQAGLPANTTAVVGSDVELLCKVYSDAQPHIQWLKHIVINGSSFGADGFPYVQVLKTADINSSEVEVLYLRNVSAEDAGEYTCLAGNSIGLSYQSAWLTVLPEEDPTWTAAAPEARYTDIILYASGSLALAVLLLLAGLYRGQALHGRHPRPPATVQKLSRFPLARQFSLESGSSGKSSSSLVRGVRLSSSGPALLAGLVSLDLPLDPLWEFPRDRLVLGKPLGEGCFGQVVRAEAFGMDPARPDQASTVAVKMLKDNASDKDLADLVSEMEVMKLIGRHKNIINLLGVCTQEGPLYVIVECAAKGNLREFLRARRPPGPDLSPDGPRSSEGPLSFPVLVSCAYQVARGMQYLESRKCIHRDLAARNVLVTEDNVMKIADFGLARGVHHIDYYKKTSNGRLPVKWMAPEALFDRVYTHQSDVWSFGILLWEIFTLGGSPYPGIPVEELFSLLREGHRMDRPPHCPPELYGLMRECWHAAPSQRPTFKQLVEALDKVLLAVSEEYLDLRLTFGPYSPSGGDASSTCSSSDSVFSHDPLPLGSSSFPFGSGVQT

[3] = target: Serine/threonine-protein kinase BRSK1 (Homo sapiens) (UniProt Q8TDC3); experiment: Inhibition of human BrSK1 at 10 uM after 60 mins by TR-FRET assay; values are per cent of control
[4] = target: Cyclin-dependent kinase 5/CDK5 activator 1 (Homo sapiens) (UniProt Q00535+Q15078); experiment: Inhibition of human CDK5/p35 at 10 uM after 60 mins by TR-FRET assay; values are per cent of control
[5] = target: Ephrin type-A receptor 7 (Homo sapiens) (UniProt Q15375); experiment: Inhibition of human EphA7 at 10 uM after 60 mins by TR-FRET assay; values are per cent of control
Ephrin type-A receptor 7 (Homo sapiens), sequence (Q15375 28-998 limits assumed): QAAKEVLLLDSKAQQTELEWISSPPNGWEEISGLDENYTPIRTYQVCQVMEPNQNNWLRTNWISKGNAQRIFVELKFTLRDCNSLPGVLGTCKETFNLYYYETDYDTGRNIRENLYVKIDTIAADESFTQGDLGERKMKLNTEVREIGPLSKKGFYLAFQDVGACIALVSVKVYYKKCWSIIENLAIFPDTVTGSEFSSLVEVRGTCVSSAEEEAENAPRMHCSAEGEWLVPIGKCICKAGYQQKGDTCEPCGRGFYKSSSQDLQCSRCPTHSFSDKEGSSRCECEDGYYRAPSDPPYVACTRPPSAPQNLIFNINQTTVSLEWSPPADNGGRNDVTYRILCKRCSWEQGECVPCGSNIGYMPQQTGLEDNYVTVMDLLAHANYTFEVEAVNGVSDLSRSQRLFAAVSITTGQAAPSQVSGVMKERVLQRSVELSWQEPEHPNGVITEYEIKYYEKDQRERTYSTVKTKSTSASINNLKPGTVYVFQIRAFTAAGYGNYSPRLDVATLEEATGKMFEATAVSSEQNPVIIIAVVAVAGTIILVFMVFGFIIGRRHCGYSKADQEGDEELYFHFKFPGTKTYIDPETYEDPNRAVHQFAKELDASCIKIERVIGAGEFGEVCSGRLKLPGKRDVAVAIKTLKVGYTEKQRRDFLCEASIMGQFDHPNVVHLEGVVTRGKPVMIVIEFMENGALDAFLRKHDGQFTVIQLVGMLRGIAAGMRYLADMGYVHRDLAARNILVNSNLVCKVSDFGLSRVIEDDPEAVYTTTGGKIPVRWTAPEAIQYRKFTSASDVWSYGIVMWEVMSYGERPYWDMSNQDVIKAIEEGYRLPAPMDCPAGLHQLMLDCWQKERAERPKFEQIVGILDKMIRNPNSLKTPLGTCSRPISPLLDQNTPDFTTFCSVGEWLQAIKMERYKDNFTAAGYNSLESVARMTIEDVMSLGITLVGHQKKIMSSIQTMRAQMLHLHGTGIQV

[6] = target: Serine/threonine-protein kinase pim-3 (Homo sapiens) (UniProt Q86V86); experiment: Inhibition of human Pim-3 at 10 uM after 60 mins by TR-FRET assay; values are per cent of control
[7] = target: Discoidin domain-containing receptor 2 (Homo sapiens) (UniProt Q16832); experiment: Inhibition of human DDR2 at 10 uM after 60 mins by TR-FRET assay; values are per cent of control
[8] = target: Mitogen-activated protein kinase 14 (Homo sapiens, UniProt Q16539); experiment: Inhibition of human SAPK2a at 10 uM after 60 mins by TR-FRET assay; conditions: values are per cent of control
[9] = test system: Tyrosine-protein kinase ABL1 (Homo sapiens), P00519 [Q252H]; experiment: Inhibition of human Abl Q252H mutant at 10 uM after 60 mins by TR-FRET assay; values are per cent of control
[10] = target: Serine/threonine-protein kinase TAO3 (Homo sapiens) (UniProt Q9H2K8); experiment: Inhibition of human TAO3 at 10 uM after 60 mins by TR-FRET assay; values are per cent of control
Serine/threonine-protein kinase TAO3 (Homo sapiens), sequence (Q9H2K8 whole entry): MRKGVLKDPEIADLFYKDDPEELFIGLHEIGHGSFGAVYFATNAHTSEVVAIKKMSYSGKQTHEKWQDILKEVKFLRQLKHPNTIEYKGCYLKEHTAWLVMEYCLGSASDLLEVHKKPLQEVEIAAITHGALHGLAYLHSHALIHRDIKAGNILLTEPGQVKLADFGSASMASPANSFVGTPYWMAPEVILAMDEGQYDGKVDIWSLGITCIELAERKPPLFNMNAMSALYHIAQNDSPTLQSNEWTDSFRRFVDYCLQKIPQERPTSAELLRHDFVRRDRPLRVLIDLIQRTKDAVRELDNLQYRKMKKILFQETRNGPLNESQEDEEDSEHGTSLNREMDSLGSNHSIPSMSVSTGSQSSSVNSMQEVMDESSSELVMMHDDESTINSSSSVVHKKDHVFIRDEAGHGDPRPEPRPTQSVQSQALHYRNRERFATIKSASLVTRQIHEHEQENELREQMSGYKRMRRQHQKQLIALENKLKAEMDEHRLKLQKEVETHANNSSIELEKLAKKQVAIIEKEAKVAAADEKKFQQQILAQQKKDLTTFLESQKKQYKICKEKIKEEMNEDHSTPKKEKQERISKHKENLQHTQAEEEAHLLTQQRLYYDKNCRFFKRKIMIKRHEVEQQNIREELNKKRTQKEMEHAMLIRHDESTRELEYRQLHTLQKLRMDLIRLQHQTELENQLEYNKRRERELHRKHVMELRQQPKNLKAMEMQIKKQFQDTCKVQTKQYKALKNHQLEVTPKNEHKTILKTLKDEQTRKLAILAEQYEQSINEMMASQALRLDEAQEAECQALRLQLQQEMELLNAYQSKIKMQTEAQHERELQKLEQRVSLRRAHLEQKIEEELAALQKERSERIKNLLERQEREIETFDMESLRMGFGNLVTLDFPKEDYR

[11] = test system: Epidermal growth factor receptor (Homo sapiens), P00533 [L858R]; experiment: Inhibition of human EGFR L858R mutant at 10 uM after 60 mins by TR-FRET assay; assay type: protein assay; conditions: values are per cent of control
[12] = target: Tyrosine-protein kinase HCK (Homo sapiens) (UniProt P08631); experiment: Inhibition of human Hck at 10 uM after 60 mins by TR-FRET assay; values are per cent of control
[13] = target: Phosphorylase b kinase gamma catalytic chain, liver/testis isoform (Homo sapiens) (UniProt P15735); experiment: Inhibition of human PhKgamma2 at 10 uM after 60 mins by TR-FRET assay; values are per cent of control
[14] = target: Mitogen-activated protein kinase 10 (Homo sapiens, UniProt P53779); experiment: Inhibition of human JNK3 at 10 uM after 60 mins by TR-FRET assay; values are per cent of control
[15] = target: Mitogen-activated protein kinase kinase kinase 5 (Homo sapiens) (UniProt Q99683); experiment: Inhibition of human ASK1 at 10 uM after 60 mins by TR-FRET assay; values are per cent of control
[16] = target: mTOR/FKBP12A/FKBP12B (Homo sapiens) (UniProt P62942+P68106+P42345); experiment: Inhibition of human mTOR/FKBP12 at 10 uM after 60 mins by TR-FRET assay; assay type: protein-complex assay; conditions: values are per cent of control
[17] = test system: Mast/stem cell growth factor receptor Kit (Homo sapiens), P10721 [D816V]; experiment: Inhibition of human c-Kit D816V mutant at 10 uM after 60 mins by TR-FRET assay; values are per cent of control
Mast/stem cell growth factor receptor Kit (Homo sapiens), P10721 [D816V], sequence (P10721 whole entry D816V): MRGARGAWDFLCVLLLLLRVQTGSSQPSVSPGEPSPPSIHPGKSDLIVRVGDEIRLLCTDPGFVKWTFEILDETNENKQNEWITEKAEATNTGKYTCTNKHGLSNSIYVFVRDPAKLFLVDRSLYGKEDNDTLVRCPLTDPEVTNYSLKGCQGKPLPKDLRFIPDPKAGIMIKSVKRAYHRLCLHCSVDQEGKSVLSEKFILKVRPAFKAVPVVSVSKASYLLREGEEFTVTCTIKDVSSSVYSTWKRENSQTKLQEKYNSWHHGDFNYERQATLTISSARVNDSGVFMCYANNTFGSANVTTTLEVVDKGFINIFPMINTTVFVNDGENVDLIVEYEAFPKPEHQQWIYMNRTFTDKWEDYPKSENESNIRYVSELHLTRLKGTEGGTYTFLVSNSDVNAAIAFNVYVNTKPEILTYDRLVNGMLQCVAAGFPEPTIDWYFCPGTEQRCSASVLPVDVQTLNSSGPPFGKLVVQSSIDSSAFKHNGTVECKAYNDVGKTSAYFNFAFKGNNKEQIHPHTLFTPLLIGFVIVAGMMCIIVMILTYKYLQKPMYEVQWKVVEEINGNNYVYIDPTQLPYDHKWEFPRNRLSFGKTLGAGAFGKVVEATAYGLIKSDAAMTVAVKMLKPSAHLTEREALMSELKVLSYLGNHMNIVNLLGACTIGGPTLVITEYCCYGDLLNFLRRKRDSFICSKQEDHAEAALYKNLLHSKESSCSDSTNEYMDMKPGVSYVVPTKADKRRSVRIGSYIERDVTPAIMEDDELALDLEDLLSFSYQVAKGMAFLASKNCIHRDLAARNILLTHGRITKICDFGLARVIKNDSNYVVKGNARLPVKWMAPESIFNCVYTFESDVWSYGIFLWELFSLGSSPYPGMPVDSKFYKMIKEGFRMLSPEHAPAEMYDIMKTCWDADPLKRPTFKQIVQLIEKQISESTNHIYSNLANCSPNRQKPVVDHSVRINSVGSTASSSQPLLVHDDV

[18] = target: Maternal embryonic leucine zipper kinase (Homo sapiens) (UniProt Q14680); experiment: Inhibition of human MELK at 10 uM after 60 mins by TR-FRET assay; values are per cent of control
Saccharomyces cerevisiae = experiment: Inhibition of yeast CK1 at 10 uM after 60 mins by TR-FRET assay; values are per cent of control
[19] = target: SRSF protein kinase 2 (Homo sapiens) (UniProt P78362); experiment: Inhibition of human SRPK2 at 10 uM after 60 mins by TR-FRET assay; values are per cent of control
[20] = target: Serine/threonine-protein kinase Chk2 (Homo sapiens) (UniProt O96017); experiment: Inhibition of human CHK2 at 10 uM after 60 mins by TR-FRET assay; values are per cent of control
Serine/threonine-protein kinase Chk2 (Homo sapiens), sequence (O96017 whole entry): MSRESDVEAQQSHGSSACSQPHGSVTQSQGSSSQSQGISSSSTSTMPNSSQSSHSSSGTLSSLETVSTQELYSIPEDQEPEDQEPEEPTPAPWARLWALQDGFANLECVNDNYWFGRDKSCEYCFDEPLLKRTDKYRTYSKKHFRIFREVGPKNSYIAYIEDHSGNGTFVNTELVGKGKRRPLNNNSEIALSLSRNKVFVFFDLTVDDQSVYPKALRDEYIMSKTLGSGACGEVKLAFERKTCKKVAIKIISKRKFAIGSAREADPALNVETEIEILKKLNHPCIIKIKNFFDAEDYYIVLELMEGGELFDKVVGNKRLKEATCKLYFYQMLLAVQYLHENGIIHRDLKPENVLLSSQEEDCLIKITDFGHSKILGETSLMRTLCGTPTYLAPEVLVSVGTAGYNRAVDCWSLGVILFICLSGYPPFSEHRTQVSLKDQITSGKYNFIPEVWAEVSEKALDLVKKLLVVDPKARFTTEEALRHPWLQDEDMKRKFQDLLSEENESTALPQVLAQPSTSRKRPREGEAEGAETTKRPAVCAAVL

[21] = target: Ribosomal protein S6 kinase alpha-5 (Homo sapiens) (UniProt O75582); experiment: Inhibition of human MSK1 at 10 uM after 60 mins by TR-FRET assay; conditions: values are per cent of control
[22] = target: Serine/threonine-protein kinase haspin (Homo sapiens) (UniProt Q8TF76); experiment: Inhibition of human Haspin at 10 uM after 60 mins by TR-FRET assay; values are per cent of control
Serine/threonine-protein kinase haspin (Homo sapiens), sequence (Q8TF76 whole entry): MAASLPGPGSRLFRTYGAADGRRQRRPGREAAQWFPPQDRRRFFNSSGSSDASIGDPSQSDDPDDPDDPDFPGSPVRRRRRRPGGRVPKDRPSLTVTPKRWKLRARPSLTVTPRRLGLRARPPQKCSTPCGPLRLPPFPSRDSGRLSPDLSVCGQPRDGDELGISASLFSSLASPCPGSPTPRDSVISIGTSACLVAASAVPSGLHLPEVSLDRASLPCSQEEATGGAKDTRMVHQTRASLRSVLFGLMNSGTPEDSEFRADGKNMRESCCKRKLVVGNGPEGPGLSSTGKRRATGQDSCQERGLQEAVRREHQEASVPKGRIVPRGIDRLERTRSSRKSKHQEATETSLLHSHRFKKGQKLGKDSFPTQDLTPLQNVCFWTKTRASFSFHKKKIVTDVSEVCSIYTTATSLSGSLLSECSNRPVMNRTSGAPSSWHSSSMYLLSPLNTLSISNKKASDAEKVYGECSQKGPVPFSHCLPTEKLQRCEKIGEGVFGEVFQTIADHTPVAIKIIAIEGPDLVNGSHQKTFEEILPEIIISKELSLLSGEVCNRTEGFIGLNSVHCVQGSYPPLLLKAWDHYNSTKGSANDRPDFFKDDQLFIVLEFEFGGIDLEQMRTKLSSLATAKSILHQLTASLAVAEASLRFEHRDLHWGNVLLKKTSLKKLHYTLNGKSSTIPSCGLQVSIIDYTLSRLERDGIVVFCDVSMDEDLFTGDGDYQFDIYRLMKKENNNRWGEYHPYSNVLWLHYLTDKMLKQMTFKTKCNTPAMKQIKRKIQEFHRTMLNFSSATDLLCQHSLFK

[23] = target: Tyrosine-protein kinase BTK (Homo sapiens) (UniProt Q06187); experiment: Inhibition of human BTK at 10 uM after 60 mins by TR-FRET assay; values are per cent of control
[24] = target: Ephrin type-A receptor 5 (Homo sapiens) (UniProt P54756); experiment: Inhibition of human EphA5 at 10 uM after 60 mins by TR-FRET assay; conditions: values are per cent of control
[25] = target: Homeodomain-interacting protein kinase 2 (Homo sapiens) (UniProt Q9H2X6); experiment: Inhibition of human HIPK2 at 10 uM after 60 mins by TR-FRET assay; values are per cent of control
[26] = target: Protein kinase C delta type (Homo sapiens) (UniProt Q05655); experiment: Inhibition of human PKCdelta at 10 uM after 60 mins by TR-FRET assay; values are per cent of control
[27] = target: Mitogen-activated protein kinase 1 (Mus musculus) (UniProt P63085); experiment: Inhibition of mouse MAPK2 at 10 uM after 60 mins by TR-FRET assay; values are per cent of control

`S=c1[nH]nc(-c2ccncc2)n1-c1ccc2ccccc2c1` gave a residual activity [1] of 103%, a residual activity [2] of 95% and a residual activity [3] of 102%. For the same molecule, the residual activity [4] was 96%, the residual activity [5] was 65% and the residual activity [6] was 99%. For the same molecule, the residual activity [7] was 94%, the residual activity [8] was 71% and the residual activity [9] was 111%. For the same molecule, the residual activity [10] was 91%, the residual activity [11] was 75% and the residual activity [12] was 112%. It also gave a residual activity [13] of 109%, a residual activity [14] of 4% and a residual activity [15] of 102%. For the same molecule, the residual activity [16] was 107%, the residual activity [17] was 113% and the residual activity [18] was 105%. It also gave a residual activity (Saccharomyces cerevisiae) of 90%, a residual activity [19] of 110% and a residual activity [20] of 116%. For the same molecule, the residual activity [21] was 114%, the residual activity [22] was 102% and the residual activity [23] was 118%. It also gave a residual activity [24] of 110%, a residual activity [25] of 95% and a residual activity [26] of 111%. It also gave a residual activity [27] of 114%.
